Source: PubChem BioAssay (NCI)
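Step 1: Grow cells in 96-well plates. Step 2: Expose to compound for 48 hours at 5 concentrations. Step 3: Interpolate endpoints linearly; if unreached, use highest concentration. Here, GI50 denotes the concentration required for 50% inhibition of growth. TGI: concentration producing complete growth inhibition.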

Key:
Assay in all cases: growth of human tumour cells (NCI), 48 h
[1] = tested on: T-47D breast
[2] = tested on: SF-539 CNS
[3] = tested on: SW-620 colon
[4] = tested on: CAKI-1 renal
[5] = tested on: HOP-62 NSCLC
[6] = tested on: DU-145 prostate
[7] = tested on: EKVX NSCLC
[8] = tested on: A498 renal
[9] = tested on: CCRF-CEM leukemia
[10] = tested on: HL-60(TB) leukemia

Compound | GI50 [1] | TGI [1] | GI50 [2] | TGI [2] | GI50 [3] | TGI [3] | GI50 [4] | TGI [4] | GI50 [5] | TGI [5] | GI50 [6] | TGI [6] | GI50 [7] | TGI [7] | GI50 [8] | TGI [8] | GI50 [9] | TGI [9] | GI50 [10] | TGI [10]
C=C1/C(=C\C=C2/CCC[C@]3(C)[C@@H]([C@H](C)CCCC(C)(C)O)CC[C@@H]23)C[C@@H](OC(=O)CBr)C[C@@H]1O | 2.71 µM | 19.3 µM | 0.212 µM | 0.629 µM | 1.78 µM | 3.96 µM | 3.19 µM | 15.8 µM | 12.9 µM | 30.5 µM | 12.4 µM | 26.6 µM | 3.17 µM | 19.5 µM | 0.469 µM | 3.17 µM | 0.0491 µM | 0.307 µM | 0.3 µM | 1.09 µM
COc1ccc(C2CC(C)(O)Oc3cc4c(cc32)OCO4)cc1 (stereo not given) |  | > 50.5 µM |  | > 100 µM |  | > 100 µM |  | > 100 µM |  | > 100 µM |  | > 100 µM |  | > 100 µM |  | > 91.6 µM |  | > 82.8 µM |  | 68.4 µM
